Structures are written as SMILES.

Consider one molecule from paper PMC6499371 (Chemical communications (Cambridge, England), 2019).

For the test, the target named is T1, porcine trehalase (Sus scrofa, UniProt I3LIR5).
T1 sequence (I3LIR5 24-556): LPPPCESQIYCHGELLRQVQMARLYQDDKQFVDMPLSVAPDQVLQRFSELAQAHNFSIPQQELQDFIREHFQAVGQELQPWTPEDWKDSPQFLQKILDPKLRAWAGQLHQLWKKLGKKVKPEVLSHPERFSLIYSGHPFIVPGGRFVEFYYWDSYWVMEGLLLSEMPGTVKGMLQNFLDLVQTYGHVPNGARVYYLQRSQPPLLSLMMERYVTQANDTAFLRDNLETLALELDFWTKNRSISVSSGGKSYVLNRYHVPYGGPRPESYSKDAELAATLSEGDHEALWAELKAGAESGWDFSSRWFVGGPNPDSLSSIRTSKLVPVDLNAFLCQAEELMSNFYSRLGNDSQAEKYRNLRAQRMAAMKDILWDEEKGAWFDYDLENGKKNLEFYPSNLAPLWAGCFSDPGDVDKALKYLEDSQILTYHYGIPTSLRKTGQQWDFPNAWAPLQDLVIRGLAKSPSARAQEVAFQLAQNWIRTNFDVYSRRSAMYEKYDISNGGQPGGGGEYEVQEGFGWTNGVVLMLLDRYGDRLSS
Description: UV spectrophotometric coupled assay of trehalose hydrolysis. Type of test: biochemical.

As a reminder, the IC50 is the point on the concentration scale where inhibition reaches its midpoint. Low values mean inhibition by little substance, high ones a need for much substance. Consider `OC[C@H]1O[C@H](O[C@H]2O[C@H](CO)[C@@H](O)[C@H](O)[C@H]2O)[C@@H](O)[C@@H](O)[C@@H]1O` [compound 2, mannotrehalose], for which the 50% inhibitory concentration (IC50) stood at 1.13 mM.
